Test [1] relates to anti-nicotine IgG. Briefly: Anti-nicotine IgG in immunized mice (ELISA). In kind it is in vivo, C57BL6 mice. The conditions noted are these: data of FIGS. 34 and 35.
Test [2] has as its system CD4 T cells from OT-II donor mice. Briefly: In vivo CD4 T cell activation (CFSE-labeled OT-II cells). Conditions: three days after footpad immunization; CpG adjuvant. Also on record: species or system C57BL6J mice. Here is the method:
Subsequently, immunization experiments were performed by injecting one footpad with free OVA or with nanoparticles composed of either PLA or PLGA that encapsulated an equivalent amount of OVA as a model antigen. All antigenic mixtures also contained CpG (a TLR9 agonist) as an adjuvant. The animals were injected, sacrificed three days after immunization, and OT-II T cell activation was assessed by flow cytometry in single-cell suspensions from different tissues.
By contrast, activated T cells divide and in the process split the fluorescent dye evenly between the two daughter cells resulting in an incremental decrease in fluorescence intensity upon each successive division. Thus, the greater the left shift in CFSE, fluorescence the stronger T cells were activated.

For `CN1CCCC1c1cccnc1` (centres unmarked) [free nicotine, nicotine], in test [1], the “production of nicotine antibodies” value is listed as “does not elicit the production of nicotine antibodies”.

Regarding “free OVA: free chicken ovalbumin (OVA) model antigen, mixed with CpG adjuvant”, in test [2], the “local T cell proliferation in distal lymphoid tissues (brachial lymph node, spleen)” value is “only undivided cells or cells with very low CFSE content”.
